Patent publication US8748632B2, “Positive allosteric modulators of group II mGluRs” (Sanford-Burnham Medical Research Institute, priority 2010, dated 2014)

Target: mGluR2 (Rattus norvegicus, UniProt P31421)
Test: mGluR2 PAM (positive allosteric modulator) EC50
Assay type: cell-based
Conditions: positive allosteric modulator activity

Chain of mGluR2 (P31421 19-872): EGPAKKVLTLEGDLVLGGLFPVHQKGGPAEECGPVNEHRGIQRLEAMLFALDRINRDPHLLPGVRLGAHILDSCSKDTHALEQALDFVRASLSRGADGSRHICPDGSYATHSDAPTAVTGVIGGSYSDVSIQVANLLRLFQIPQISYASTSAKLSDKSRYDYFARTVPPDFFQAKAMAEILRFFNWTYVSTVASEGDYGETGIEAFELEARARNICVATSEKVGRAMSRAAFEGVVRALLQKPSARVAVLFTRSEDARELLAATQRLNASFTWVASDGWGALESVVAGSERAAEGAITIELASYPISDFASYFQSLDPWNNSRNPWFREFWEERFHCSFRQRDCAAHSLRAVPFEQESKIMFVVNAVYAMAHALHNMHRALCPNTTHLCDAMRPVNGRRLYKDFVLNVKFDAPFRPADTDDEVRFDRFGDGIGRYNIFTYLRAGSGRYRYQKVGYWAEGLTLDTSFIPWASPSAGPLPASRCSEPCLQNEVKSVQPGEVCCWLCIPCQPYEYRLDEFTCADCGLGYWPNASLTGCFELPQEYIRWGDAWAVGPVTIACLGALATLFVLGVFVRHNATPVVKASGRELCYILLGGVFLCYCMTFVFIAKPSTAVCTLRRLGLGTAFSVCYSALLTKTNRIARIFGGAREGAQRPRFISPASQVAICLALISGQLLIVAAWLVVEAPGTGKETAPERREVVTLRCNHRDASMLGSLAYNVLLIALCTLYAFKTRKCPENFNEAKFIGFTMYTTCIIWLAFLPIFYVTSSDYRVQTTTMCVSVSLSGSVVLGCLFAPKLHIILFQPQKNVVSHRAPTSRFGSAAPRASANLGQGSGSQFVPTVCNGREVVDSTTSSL

O=C(O)c1cc(-c2cccc(COc3ccc4c(=O)n(C5CCCCC5)oc4c3)c2)ccc1Cl [Example 61, 4-Chloro-3′-((2-cyclohexyl-3-oxo-2,3-dihydrobenzo[d]isoxazol-6-yloxy)methyl)biphenyl-3-carboxylic acid]
mGluR2 PAM EC50(μM): desensitizes
